Experimental data published in PubChem BioAssay AID179 (DTP/NCI, 2004).
Where “and” joins values, the source holds several entries; their conditions need not be identical. Equal entries are not always repeated. Calls of active or inactive are those of the source.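 The calls were made as follows: active = compounds giving half or more protection of infected cells from virus-caused growth loss, again on retest; inactive = the rest.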 Where a SMILES comes first, the peptide text is derived from it. [ ]: non-standard residue; d: D form. ξ: configuration not given here. Ac5c = NC1(C(=O)O)CCCC1; ξS = NC(CO)C(=O)O

Tested on: CEM cells HIV-1 protection, formazan growth assay
Assay: NCI AIDS Antiviral Assay
Conditions: for IC50: measured here: growth of uninfected CEM cells
Outline: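 Protection of CEM cells against HIV-1 was scored from cell growth (soluble formazan) across five concentrations, with parallel uninfected cells. Lack of protection may reflect toxicity.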

SMILES | EC50 | IC50 | outcome
CCOC(=O)NCC(OS(C)(=O)=O)C(CNC(=O)OCC)OS(C)(=O)=O (centres undefined) | > 120 µM | > 120 µM | 
COC1C(C)OC(OC2CC(C)(O)Cc3cc4c(c(O)c32)C(=O)c2c(O)cc3c(c2C4=O)OC2OC3(C)C(O)C(N(C)C)C2O)C(OC)C1(C)OC (centres undefined) |  |  | inactive
CCCCCCCCCCCCSSSCCCCCCCCCCCC | > 200 µM | > 200 µM | 
CC(=O)NCCC1CN(C(=O)/C=C\I)c2ccccc21 (centres undefined) | > 200 µM | 9.33 µM | 
O=C(O)C1SCCCS1 | > 1510 µM | > 1510 µM | 
O=C1C(Cl)N(c2ccccc2)C1c1c[nH]c2ccccc12 (centres undefined) | > 316 µM | 288 µM | 
COC1C(OC(=O)/C=C/C=C/C=C/C=C\C(=O)O)CCC2(CO2)C1C1(C)OC1CC=C(C)C (centres undefined) | 49 µM | > 200 µM | 
CC1=C(O)C(=O)C=C2C1=CC=C1[C@@]2(C)CC[C@@]2(C)C3C[C@@H](C)C(=O)[C@@H](O)[C@]3(C)CC[C@]12C (some centres undefined) | > 1.26 µM | 0.2 µM | 
[Se]c1nc2ccccc2o1 | > 224 µM | 53.7 µM | 
CSC(=N/N=C(\C)c1ccc(S(=O)(=O)N(C)c2ccccc2)cc1)SC | > 200 µM | 14.8 µM | 
COC(=O)c1cc(-c2c[nH]cc2C(=O)OCc2ccccc2)cn1S(=O)(=O)c1ccc(C)cc1 | > 200 µM | 17.8 µM | 
COC(=O)CC(=O)OC1C[C@@H]2CCC3C(C)(C)CCC[C@]3(C)C23CC[C@@]1(C)C3 (some centres undefined) | > 18.2 µM | > 18.2 µM | 
c1ccc(OCC[P+](c2ccccc2)(c2ccccc2)c2ccccc2)cc1 | > 200 µM | 0.501 µM | 
C/C(=N\NC(=O)C[N+](C)(C)C)c1sc(-c2cccnc2)nc1C | > 135 µM | 72.4 µM | 
OC1C2CN3CCN(C2)CC1(c1ccccc1)C3 (centres undefined) | > 200 µM | > 200 µM | 
O=C(O)c1cc(N=Nc2ccc(/C=C/c3ccc(N=Nc4cc(C(=O)O)c(O)c5ccccc45)cc3S(=O)(=O)O)c(S(=O)(=O)O)c2)c2ccccc2c1O | 46.8 µM | 72.4 µM | 
CCOC(=O)C1(C)CCCC1N (centres undefined) | > 200 µM | > 200 µM | 
N#Cc1ccc2oc3ccc(C#N)cc3c(=O)c2c1 |  |  | inactive
Fc1ccc(CN2COc3c(cc(Cl)c4cccnc34)C2)cc1 | > 200 µM | 0.977 µM | 
CCOC(OCC)N1C(=O)C2(C(OCC)OCC)CC3C(OC(=O)N3N)c3cccc1c32 (centres undefined) |  |  | inactive
COCC[N+](CCNC(=O)c1cccc2c(N)c3cccc(C)c3nc12)(CCOC)Cc1ccc([N+](=O)[O-])cc1 | > 200 µM | 13.2 µM | 
COC(=O)C(Cc1nc2ccccc2[nH]c1=O)C(=O)C(=O)Nc1ccc(OC)cc1[N+](=O)[O-] (centres undefined) | > 398 µM | > 398 µM | 

SMILES | EC50 | IC50 | outcome
O=C1c2ccccc2-c2nnc(-c3ccc([N+](=O)[O-])cc3)cc21 | > 100 µM | > 100 µM | 
CN(C)CCNc1ccc([N+](=O)[O-])c2nc3ccccc3c(N)c12 | > 200 µM | 1.95 µM | 
COc1cc2c(c(OC)c1OC)-c1ccc(OC)c(=O)cc1[C@@H](NC(C)=O)CC2 |  |  | inactive
CC(=O)OCC1OC(N2C(=O)[C@@H](Oc3ccccc3)[C@H]2/C=C/c2ccccc2)C(OC(C)=O)C(OC(C)=O)C1OC(C)=O (some centres undefined) | > 16.6 µM | > 16.6 µM | 
CCCCCCCCCCCCCCCc1cc(=O)c2c(O)cc(O)cc2o1 |  |  | inactive
O=C(O)c1cc(=O)c2cc(C(=O)c3cccs3)c(Cl)c(Cl)c2o1 | > 9.55 µM | > 9.55 µM | 
CC1=C(C)CP(=O)(c2ccccc2)C1 | 0.0631 µM | > 200 µM | 
O=C1OC2C(O)COC23OC(O)CCC13O (centres undefined) | > 200 µM | > 200 µM | 
O=C1NC2CC1C(O)C2O (centres undefined) | > 200 µM | > 200 µM | 
CCCCCCC(CC)(C(=O)O)C(=O)O | > 437 µM | > 437 µM | 
CC(=S)NC1C(Oc2ccc3c(C)cc(=O)oc3c2)OC(CO)C(O)C1O (centres undefined) | > 200 µM | > 200 µM | 
CC(=O)Nc1ccc2c(C)c3c4ccccc4n(C)c3nc2n1 | > 200 µM | 5.25 µM | 
CCOC(=O)c1c(-c2ccc(O)c(OC)c2)c(C#N)c(=S)n(C2OC(CO)C(O)C(O)C2O)c1-c1ccccc1 (centres undefined) | > 200 µM | > 200 µM and 117 µM | 
CNC(=S)N1CCN(C(C)=O)C1=S | > 200 µM | > 200 µM | 
COc1cc2cnc3c4cc(OC)c(OC(C)C)cc4ccc3c2cc1OC | > 5.37 µM | > 5.37 µM | 
Clc1ccc(CSc2cnnc3c(Br)cccc23)c(Cl)c1 | > 24.5 µM | > 24.5 µM | 
COC(=O)[C@@]12C=CC(=O)[C@H]3C[C@@H](C(C(C)C)C1)[C@]32OC (some centres undefined) |  |  | inactive
COP(=O)(OC)C1c2ccccc2-c2cccc(C(=O)O)c21 (centres undefined) | > 200 µM | > 200 µM | 
Cc1cc2c(=O)c(C)n[nH]c2c(C#N)c1C | > 1170 µM | 178 µM | 
CSc1nc(NC(=O)O)c(N(C(C)=O)C(=O)O)c(=O)n1C | > 794 µM | > 794 µM | 
NC(=S)NN/C=C(\C=Nc1ccccc1)[N+](=O)[O-] | > 355 µM | 178 µM | 
O=C(Nc1nc(C23CC4CC(CC(C4)C2)C3)cs1)c1cc2ccc(O)cc2oc1=O | > 200 µM | 7.41 µM | 

SMILES | EC50 | IC50 | outcome
Cc1cc2c(nn1)-c1ccccc1C2=O | > 200 µM | 105 µM | 
N#Cc1nn(C2OC(COC(=O)c3ccccc3)C(OC(=O)c3ccccc3)C2OC(=O)c2ccccc2)c2nc[nH]c(=O)c12 (centres undefined) | > 200 µM | 74.1 µM | 
COc1ccc(OC)c2c1ccc1c(C)c3ccccc3c(C)c12 | > 200 µM | 35.5 µM | 
CC1(C)CC2C(C1=O)C1(C)CCCC2(C)C1=O (centres undefined) | > 200 µM | > 200 µM | 
COc1c(Br)c(=O)n(C)c(=O)n1C | > 200 µM | > 200 µM | 
N#CC(=N)c1ncn(CCO)c1NC(=O)C(F)(F)F | > 200 µM | > 200 µM | 
Cc1nc2ccccc2c(=O)n1-c1ccccc1F | > 708 µM | 437 µM | 
COc1ccc(/C=C2\CCCC(CN(C)C)C2=O)cc1 (centres undefined) | > 200 µM | 1.02 µM | 
CCOC(=O)CC(N1CC1)N1CC1 | > 200 µM | > 200 µM | 
Cn1ccc(C(=O)N2CCSC2=S)c(OCc2ccccc2)c1=O | > 200 µM | 120 µM | 
N#Cc1c(-c2ccco2)cc(-c2ccc(N)cc2)[nH]c1=O | > 25.7 µM | > 25.7 µM | 
CCN(CC)CCNc1ccc2ncn3c4cc(OC)c(OC)c(=O)c4c(O)c1c23 | > 50.1 µM | 0.589 µM | 
CC(=O)NC1C(OCc2ccccc2)OC(CO)C(O)C1OC(C)C(=O)NC(C(=O)NC(CCC(=O)NCCCCNc1c2ccccc2nc2cccc([N+](=O)[O-])c12)C(N)=O)C(C)C (centres undefined) | > 100 µM | 1.12 µM | 
CC1=C(C(=S)Nc2ccc(Cl)c(C(=O)OC(C)C)c2)SCCO1 | 0.024 µM | 64.6 µM | 
Oc1cc(Cl)cc2cccnc12 |  |  | inactive
NC(=O)CCCCNC(=O)c1ccccc1SC(=O)CCCC[n+]1ccccc1 | 1.26 µM | 10.7 µM | 
c1ccc(-c2csc3[n+]2CCN3)cc1 | > 200 µM | 126 µM | 
COc1c(OC2OC(CO)C(O)C(O)C2O)cc2c(c1OC)-c1ccc(SC)c(=O)cc1[C@@H](NC(C)=O)CC2 (some centres undefined) |  |  | inactive
Cc1ccc2[nH]c3c(c2c1)C1CCC(C(C)(C)C)CC1C1C(=O)N(c2ccc4c(c2)OCO4)C(=O)C31 (centres undefined) | > 200 µM | 11.5 µM | 
Cc1cc(O)c(/C=N/C(N)=S)c(=O)o1 | > 200 µM | > 200 µM | 
CC(C)CCCC(C)C1CCC2[C@@H]3CCC4C[C@@H](CCCC(c5cc(Cl)c(O)c(C(=O)O)c5)c5cc(Cl)c(O)c(C(=O)O)c5)CC[C@]4(C)C3CC[C@]12C (some centres undefined) | 18.2 µM | 309 µM | 
NC(N)=NS(=O)(=O)c1ccc(NCc2c3ccccc3[n+]([O-])c3ccccc23)cc1 |  |  | inactive

SMILES | EC50 | IC50 | outcome
O=C(CCCN1CCC(O)(c2ccc(Cl)cc2)CC1)c1ccc(F)cc1 | > 132 µM |  | 
CCC/C(=N\NC(=S)N1CC2CCC(CC2)C1)c1ccccn1 | > 6.76 µM | 0.148 µM | 
CCOC(=O)C(CO)NC(=O)C1(NC(C)=O)CCCC1 (centres undefined) (Ac-[Ac5c]-[ξS]-OEt) | > 200 µM | > 200 µM | 
CC(=O)OC1COC(n2c(=S)n(-c3ccccc3)c(=O)c3ccccc32)C(OC(C)=O)C1OC(C)=O (centres undefined) | > 36.3 µM | > 36.3 µM | 
O=Nc1c(-c2ccccc2)nc2ncccn12 | > 200 µM | 2.14 µM | 
C[Si](C)(OCCS(=O)(=O)O)C1(Cc2cccc3ccccc23)S(=O)(=O)OCCOS1(=O)=O | > 200 µM | 107 µM | 
COc1cccc(/C=C2\N=C(c3ccccc3)OC2=O)c1OC | > 200 µM | 91.2 µM | 
COC[C@]12CN(C=O)[C@H]3C4[C@H](OC)[C@H]1C3([C@@H](OC)C[C@H]2O)[C@@H]1C[C@@]2(O)[C@H](OC(=O)c3ccccc3)[C@@H]1[C@]4(OC(C)=O)[C@@H](O)[C@@H]2OC | > 200 µM | > 200 µM | 
CC1N=C(c2ccccc2)OC1=O (centres undefined) | > 200 µM | > 200 µM | 
OC12c3ccccc3C1CCCCCCCCCC21OCCO1 (centres undefined) |  |  | inactive
CC(C)(C)c1ccc(OCCOc2ccc(C(C)(C)C)cc2N)c(N)c1 | > 200 µM | > 200 µM | 
Cc1cn(C2CC(N=C(N)NO)C(CO)O2)c(=O)[nH]c1=O (centres undefined) | > 5250 µM | 708 µM | 
Cc1nc(C)c(C(=O)NNC(=O)Cc2ccccc2)cc1C(=O)NNC(=O)Cc1ccccc1 | > 200 µM | > 200 µM | 
CCOC(=O)NC(=O)c1cn(CCSCCOC(=O)NCCCCCCNC(=O)OCCSCCn2cc(C(=O)NC(=O)OCC)c(=O)n(C)c2=O)c(=O)n(C)c1=O | > 8.32 µM | > 8.32 µM | 
Cc1ccc(C)c(NC(=O)CCc2n[nH]c(=S)o2)c1 | > 9.33 µM | > 9.33 µM | 
O=C1CCC(=O)c2ccccc2N1 | > 1020 µM | > 1020 µM | 
CN(C)c1ccc(-c2nnc3c(c(=O)n(C)c(=O)n3C)[n+]2[O-])cc1 | > 200 µM | 19.1 µM | 
COC(=O)C12N=NN(c3ccccc3)C1(C(=O)OC)C1CCC2C1 (centres undefined) | > 200 µM | > 200 µM | 
CC1(C)OC(=O)C2C3C=CC(C2C(=O)O)C31 (centres undefined) | > 1120 µM | > 1120 µM | 
